Converted amounts (≈) assume the structure as drawn. Some results are limits rather than exact numbers.

Assay [1] concerns the target Protein farnesyltransferase (Homo sapiens, UniProt P49354+P49356). The assay is described as follows: Inhibition of [3H]FPP incorporation into recombinant Ha-Ras by bovine brain farnesyltransferase. Format: functional, Bos taurus.
Assay [2] addresses Geranylgeranyl transferase type I (Homo sapiens, UniProt P49354+P53609). In words: Inhibition of geranylgeranyl transferase I (GGTase-I). Format: protein-complex assay.
The subject of assay [3] is Rat1. The assay is described as follows: Inhibition of v-raf (Raf1a1) transformed RAT1 cell colony size and number in soft agar assay. The assay is classed as functional. The settings on record: Rattus norvegicus.
Assay [4] deals with Rat1. In words: Inhibition of v-Ha-ras (Ras2B) transformed RAT1 cell colony size and number in soft agar assay. The assay is classed as functional. As to conditions: Rattus norvegicus.
In assay [5] the test system is Rat1. In words: Minimal cytotoxic effect (<10%) in RAT1 cell viability assay. The assay is classed as functional, Rattus norvegicus.
The test system of assay [6] is NIH3T3. The assay is described as follows: Inhibition of the post-translational prenylation of Ha-Ras protein in cultured NIH3T3 cells in a protein processing assay. The assay is classed as functional, cell-based. As to conditions: Mus musculus.

As for `CSCC[C@H](NC(=O)c1cccc(CN(Cc2ccc(C#N)cc2)Cc2cnc[nH]2)c1)C(=O)O`, the half-maximal inhibitory concentration (IC50) in assay [1] stood at 0.012 µM; in assay [2], 6.2 µM.
On to `COC(=O)[C@H](CCSC)NC(=O)c1cccc(CN(Cc2ccc(C#N)cc2)Cc2c[nH]cn2)c1`, for which the MIC in assay [3] is above 10 µM; in assay [4], 10 µM (≈ 4.92 µg/mL). For the same molecule, the CTE entry in assay [5] is listed as “>=50 uM”.
The corresponding values for `CCCCN(Cc1cccc(C(=O)N[C@@H](CCSC)C(=O)OC)c1)Cc1cncn1Cc1ccc(C#N)cc1` are above 10 µM, above 10 µM and 25 µM.
Take `COC(=O)[C@H](CCSC)NC(=O)c1cccc(CN(Cc2ccc(C#N)cc2)Cc2cncn2Cc2ccc(C#N)cc2)c1`: the values for the MIC in assay [3] and in assay [4] were above 10 µM and at most 1 µM, respectively. In addition, in assay [5], the CTE is 25 µM. This molecule gave an IC50 in assay [6] of around 5 µM.
For the molecule `CSCC[C@H](NC(=O)c1cccc(CN(Cc2cnc[nH]2)Cc2cnc[nH]2)c1)C(=O)O`, the results for the IC50 in assay [1] and in assay [2] were 0.87 µM and 17 µM, respectively.
On to `COC(=O)[C@H](CCSC)NC(=O)c1cccc(CNCc2cncn2Cc2ccc(C#N)cc2)c1`, for which the minimum inhibitory concentration (MIC) in assay [3] was above 10 µM; in assay [4] it was 10 µM (≈ 4.92 µg/mL). In addition, the CTE in assay [5] worked out at 25 µM.

Usually IC50 stands for the concentration needed to halve the response being measured. Broadly, the MIC is the smallest concentration in the dilution series that meets the test's criterion for growth inhibition.

For the origin of these results see ChEMBL document CHEMBL1132268, “Non-thiol 3-aminomethylbenzamide inhibitors of farnesyl-protein transferase” (Bioorg Med Chem Lett, 1999).
